Key:
[1] = system: resveratrol biosynthesis gene (STS, ROMT); assay: Transcription expression analysis (RT-PCR) of resveratrol biosynthesis genes after activity-inducing agent treatment of grape callus liquid culture; assay type: cell-based, Vitis vinifera L. cv Campbell Early; conditions: FIG. 2; for expression of the two genes (STS, ROMT): grape callus in MS1D liquid medium, 24 hours after treatment, RT-PCR
Description: In order to establish a production system of resveratrol from grape callus, transcription expression analysis was performed through a liquid culture of stabilized grape callus derived in Example 1 as described above. It was performed in which they were cultured in MS1D (4.4 g of MS, 30 g of sucrose, 0.5 g of MES, 0.1 g of Miyo-inositol, 0.4 mg thiamine HCl, and 1 mg/L of 2,4-D), which is called a Murashige & Skoog (MS) medium containing 1 mg/L of 2,4-D, liquid medium at 25° C. and 90 rpm for 7 days, followed by treatment with an activity-inducing agent. After 24 hours, total RNA was isolated from the grape callus (Kim C Y et al. 2010, Physiologia plantarum 139: 259-261). cDNA was synthesized from the isolated total RNA (5 μg) using First-Strand cDNA Synthesis Kit (Fermantas, Canada) as described in the instruction. The synthesized cDNA (20 μl) was diluted 2.5 times and then subjected to RT-PCR using 2 μl as a template for genes related to resveratrol and pterostilbene biosynthesis from the grape callus. PCR amplification was carried out by denaturation at 94° C. for 2 minutes, 25 cycles of at 95° C. for 30 seconds, 50° C. for 40 seconds, and 72° C. for 1 minute, and a final extension reaction at 72° C. for 10 minutes. The grape resveratrol, pterostilbene biosynthesis gene, and grapactin RT-PCR primers used for this experiment were as follows: […]
Various activity-inducing agents were used for the treatment so as to promote the production of stilbene compound. The activity-inducing agents used herein were methyl jasmonate (MeJA), abscisic acid (ABA), salicylic acid (SA), ethephon, flagellin 22 (Flg22), methyl viologen (MV), and chitosan. The results confirmed that the expression of the two genes increased when MeJA, SA, and Flg22 were used and that the gene expression was the highest when MeJA was used (see FIG. 2).

grape callus = assay: Production of stilbene compounds in grape callus culture treated with activity-inducing agent and solubilizing agent, HPLC analysis of culture extract; assay type: cell-based, Vitis vinifera L. cv Campbell Early; conditions: with 100 μM MeJA, 7-day grape callus culture medium, 50 mM stevioside, FIG. 3
Description: Production of stilbene compounds was induced using the activity-inducing agent (100 μM MeJA) selected in Example 2 as described above. 20 ml of MS was inoculated with 2 g of grape callus, then cultured in a 125 ml flask for 7 days. Then, it was treated with 100 μM MeJA to obtain grape callus after 5 days. HPLC analysis was performed on the extract thereof. […] The experiment was performed to increase the production rate by solubilizing stilbene compound produced by treating with stevioside. As described above, 7-day grape callus culture was treated with 5 mM, 10 mM, 25 mM, and 50 mM stevioside at different concentrations or was treated with 100 μM MeJA and 5 mM, 10 mM, 2 5 mM, and 50 mM stevioside at different concentrations. After 5 days of culture, the samples were separated into callus and callus culture using a filter. The separated callus was filtered, followed by dehydration. The callus was frozen with liquid nitrogen and stored at −80° C. until extraction. The callus culture extract was directly extracted from the callus culture sample without storage so as to be used. […]

Compound | gene expression compared among activity-inducing agents ([1]; compared with ABA, SA, ethephon, Flg22, MV, chitosan) | expression of the two genes (STS, ROMT) [1] | content of the stilbene compound compared to the group untreated with stevioside (grape callus)
CC/C=C\CC1C(=O)CCC1CC(=O)OC (stereo not shown) [MeJA, methyl jasmonate] | highest | increased | 
O=C(O)c1ccccc1O [SA, salicylic acid] |  | increased | 
C=C1C[C@@]23CC[C@H]4[C@@](C)(CCC[C@@]4(C)C(=O)O[C@@H]4O[C@H](CO)[C@@H](O)[C@H](O)[C@H]4O)[C@@H]2CC[C@]1(O[C@@H]1O[C@H](CO)[C@@H](O)[C@H](O)[C@H]1O[C@@H]1O[C@H](CO)[C@@H](O)[C@H](O)[C@H]1O)C3 [stevioside] |  |  | significantly increased

Reference: US10920248B2, “Method for mass-producing viniferin using stevioside from cell culture of grapevine tissue” (KOREA RESEARCH INSTITUTE OF BIOSCIENCE AND BIOTECHNOLOGY, priority 2016, dated 2021)
